Test results taken from US8598157B2, “5-alkynyl-pyridines” (Boehringer Ingelheim International GmbH, priority 2011, dated 2013).

Legend:
H460 cells = experiment: alamarBlue H460 cell assay (antiproliferative/cytotoxicity); type: cell-based; conditions: NCI-H460; H460 human lung carcinoma cells
Summary of the method: (§1)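 Growth inhibition is assessed over 5-6 days of compound exposure (10 μM top, threefold dilutions) using alamarBlue fluorescence; EC50 values are fitted after subtracting medium blank.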

BT474 cells = experiment: alamarBlue BT474 cell assay (antiproliferative/cytotoxicity); type: cell-based; conditions: BT-474 human breast cancer cell line
Summary of the method: as §1

MB453 cells = experiment: alamarBlue MB453 cell assay (antiproliferative/cytotoxicity); type: cell-based; conditions: Homo sapiens; MDA MB 453 breast cancer cell line
Summary of the method: as §1

U87 cells = experiment: U87 cell assay (antiproliferative/cytotoxicity); type: cell-based; conditions: U-87MG human glioblastoma cells
Summary of the method: as §1

PI3Kalpha = PI3Kalpha (Homo sapiens (Human), UniProt P42336); experiment: Inhibition of PI3Kalpha-induced PIP-2 phosphorylation (filter-binding assay); type: biochemical; conditions: 33P-ATP, p85alpha/His-p110alpha, read-out: IC50 PI3Kα
Summary of the method: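 Radiometric filter-binding assay: PI3Kα (25 ng/well) preincubated 20 min at room temperature with compound and PIP2-containing lipid vesicles plus phosphotyrosine PDGFRβ peptide. Reaction started with cold ATP (1 μM final) and [33P]-ATP and run 120 min at room temperature; filter-captured radioactivity counted, IC50 from duplicate dilution series.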

MCF7 cells = experiment: alamarBlue MCF7 cell assay (antiproliferative/cytotoxicity); type: cell-based; conditions: MCF7 human breast cancer cell line
Summary of the method: as §1

PI3Kalpha, sequence (P42336 whole entry): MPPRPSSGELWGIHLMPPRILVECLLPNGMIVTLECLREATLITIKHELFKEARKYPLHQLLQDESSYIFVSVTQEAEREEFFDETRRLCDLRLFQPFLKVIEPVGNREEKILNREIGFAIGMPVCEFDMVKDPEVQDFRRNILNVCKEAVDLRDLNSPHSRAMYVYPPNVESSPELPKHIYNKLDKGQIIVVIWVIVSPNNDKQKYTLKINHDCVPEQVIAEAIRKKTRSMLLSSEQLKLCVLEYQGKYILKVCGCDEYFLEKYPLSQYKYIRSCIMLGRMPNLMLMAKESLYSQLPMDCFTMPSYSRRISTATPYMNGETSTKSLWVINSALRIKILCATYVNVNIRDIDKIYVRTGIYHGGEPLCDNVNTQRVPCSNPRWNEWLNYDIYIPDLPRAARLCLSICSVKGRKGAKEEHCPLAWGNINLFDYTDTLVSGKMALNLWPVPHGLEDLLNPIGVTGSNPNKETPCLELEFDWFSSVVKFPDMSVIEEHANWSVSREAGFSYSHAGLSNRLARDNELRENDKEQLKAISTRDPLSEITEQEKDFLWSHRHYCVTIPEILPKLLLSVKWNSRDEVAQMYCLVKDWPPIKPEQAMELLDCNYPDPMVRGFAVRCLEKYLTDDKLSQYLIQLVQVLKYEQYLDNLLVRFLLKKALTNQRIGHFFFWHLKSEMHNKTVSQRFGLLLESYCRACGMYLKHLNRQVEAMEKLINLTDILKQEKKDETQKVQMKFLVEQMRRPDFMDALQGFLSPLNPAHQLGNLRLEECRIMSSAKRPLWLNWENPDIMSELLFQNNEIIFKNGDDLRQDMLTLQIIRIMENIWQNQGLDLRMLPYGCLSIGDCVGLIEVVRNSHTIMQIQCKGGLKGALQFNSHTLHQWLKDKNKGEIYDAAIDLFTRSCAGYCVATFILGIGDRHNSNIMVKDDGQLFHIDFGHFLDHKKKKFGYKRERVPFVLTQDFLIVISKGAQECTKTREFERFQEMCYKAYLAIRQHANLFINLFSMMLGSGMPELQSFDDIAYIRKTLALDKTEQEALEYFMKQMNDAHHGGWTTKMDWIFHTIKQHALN

Compound	IC50 (PI3Kalpha) [nM]	EC50 (H460 cells) [nM]	EC50 (BT474 cells) [nM]	EC50 (MB453 cells) [nM]	EC50 (U87 cells) [nM]	EC50 (MCF7 cells) [nM]
Cc1cc(S(=O)(=O)Nc2cc(C#Cc3c(C)ncnc3N3CCOCC3)cnc2C)c(C)s1 [Example I-48, 2,5-Dimethyl-thiophene-3-sulfonic acid [2-methyl-5-(4-methyl-6-morpholin-4-yl-pyrimidin-5-ylethynyl)-pyridin-3-yl]-amide]	0.55	100	754	533	341	14
Cc1ncc(C#Cc2c(C)ncnc2N2CCOCC2)cc1NS(=O)(=O)c1ccccc1Br [Example I-8, 2-Bromo-N-[2-methyl-5-(4-methyl-6-morpholin-4-yl-pyrimidin-5-ylethynyl)-pyridin-3-yl]-benzenesulfonamide]	1	47	134	143	205	46
Cc1ncc(C#Cc2c(C)ncnc2N2CCCCC2)cc1NS(=O)(=O)c1ccc(F)cc1F [Example I-14, 2,4-Difluoro-N-[2-methyl-5-(4-methyl-6-piperidin-1-yl-pyrimidin-5-ylethynyl)-pyridin-3-yl]-benzenesulfonamide]	0.85	245	252	444	615	114
Cc1ncnc(N2CCOCC2)c1C#Cc1cncc(NS(=O)(=O)c2ccccc2)c1 [Example I-19, N-[5-(4-Methyl-6-morpholin-4-yl-pyrimidin-5-ylethynyl)-pyridin-3-yl]-benzenesulfonamide]	0.46	319	373	387	707	56
Cc1ccccc1S(=O)(=O)Nc1cc(C#Cc2c(C)ncnc2N2CCOCC2)cnc1C [Example I-11, 2-Methyl-N-[2-methyl-5-(4-methyl-6-morpholin-4-yl-pyrimidin-5-ylethynyl)-pyridin-3-yl]-benzenesulfonamide]	1	56	271	298	466	190
Cc1ncnc(N2CCOCC2)c1C#Cc1cncc(NS(=O)(=O)c2cccs2)c1 [Example I-21, Thiophene-2-sulfonic acid [5-(4-methyl-6-morpholin-4-yl-pyrimidin-5-ylethynyl)-pyridin-3-yl]-amide]	0.53	357	196	155	340	40
CCc1ncnc(N2CCOCC2)c1C#Cc1cnc(OC)c(NS(=O)(=O)c2ccc(F)cc2F)c1 [Example I-25, N-[5-(4-Ethyl-6-morpholin-4-yl-pyrimidin-5-ylethynyl)-2-methoxy-pyridin-3-yl]-2,4-difluoro-benzenesulfonamide]	0.63	15	22	46	104	11
CCCS(=O)(=O)Nc1cc(C#Cc2c(C)ncnc2N2CCOCC2)cnc1C [Example I-3, Propane-1-sulfonic acid [2-methyl-5-(4-methyl-6-morpholin-4-yl-pyrimidin-5-ylethynyl)-pyridin-3-yl]-amide]	5	315	1040	777	529	451

Continued, in another order:

IC50 (PI3Kalpha) [nM]	Compound	EC50 (H460 cells) [nM]	EC50 (BT474 cells) [nM]	EC50 (MB453 cells) [nM]	EC50 (U87 cells) [nM]	EC50 (MCF7 cells) [nM]
1	Cc1ncc(C#Cc2c(C)ncnc2N2CCOCC2)cc1NS(=O)(=O)c1ccoc1 [Example I-50, Furan-3-sulfonic acid [2-methyl-5-(4-methyl-6-morpholin-4-yl-pyrimidin-5-ylethynyl)-pyridin-3-yl]-amide]	128	330	239	289	16
0.89	CCc1ncnc(N2CCN(C)CC2)c1C#Cc1cnc(C)c(NS(=O)(=O)c2ccc(F)cc2)c1 [Example I-65, N-{5-[4-Ethyl-6-(4-methyl-piperazin-1-yl)-pyrimidin-5-ylethynyl]-2-methyl-pyridin-3-yl}-4-fluoro-benzenesulfonamide]	168	281	230	524	28
0.47	CCc1ncnc(N2CCN(C(C)=O)CC2)c1C#Cc1cnc(C)c(NS(=O)(=O)c2ccc(F)cc2)c1 [Example I-68, N-{5-[4-(4-Acetyl-piperazin-1-yl)-6-ethyl-pyrimidin-5-ylethynyl]-2-methyl-pyridin-3-yl}-4-fluoro-benzenesulfonamide]	542	117	116	545	36
0.44	Cc1ncc(C#Cc2c(C)ncnc2N2CCOCC2)cc1NS(=O)(=O)c1ccnn1C [Example I-56, 2-Methyl-2H-pyrazole-3-sulfonic acid [2-methyl-5-(4-methyl-6-morpholin-4-yl-pyrimidin-5-ylethynyl)-pyridin-3-yl]-amide]	756	487	239	779	125
16	Cc1ncc(C#Cc2c(C)ncnc2N2CCN(C3CC3)CC2)cc1NS(=O)(=O)c1ccccc1 [Example I-58, N-{5-[4-(4-Cyclopropyl-piperazin-1-yl)-6-methyl-pyrimidin-5-ylethynyl]-2-methyl-pyridin-3-yl}-benzenesulfonamide]	2990	3000	4640	25000	1300
2	Cc1ncc(C#Cc2c(C)ncnc2N2CCOCC2)cc1NS(=O)(=O)c1c(C)noc1C [Example I-53, 3,5-Dimethyl-isoxazole-4-sulfonic acid [2-methyl-5-(4-methyl-6-morpholin-4-yl-pyrimidin-5-ylethynyl)-pyridin-3-yl]-amide]	793	884	915	1280	135
2	Cc1ncc(C#Cc2c(C)ncnc2N2CCOCC2)cc1NS(=O)(=O)c1ccco1 [Example I-49, Furan-2-sulfonic acid [2-methyl-5-(4-methyl-6-morpholin-4-yl-pyrimidin-5-ylethynyl)-pyridin-3-yl]-amide]	356	444	393	512	49
